tested on: MDA-MB-231; test: Antiproliferative activity against human MDA-MB-231 cells measured after 72 hrs by MTS assay; type: functional, cell-based; settings: MDA-MB-231, 72 h

First: COc1cc(C(=O)c2cccc(-c3ccccc3C)n2)cc(OC)c1OC
Second: COc1cc(C(=O)c2cccc(-c3c[nH]c4ccccc34)n2)cc(OC)c1OC
The IC50 of the first is 3.9-fold higher: 91.9 nM for the first, 23.8 nM for the second. The second is the more potent here.

First: COc1cc(C(=O)c2cnc(-c3c[nH]c4ccccc34)[nH]2)cc(OC)c1OC [SABIZABULIN]
Second: COc1cc(C(=O)c2ccccn2)cc(OC)c1OC
The IC50 of the first is lower: 8.2 nM for the first, > 1000 nM for the second.

`COc1cc(C(=O)c2cccc(-c3ccc(C)c(C)c3)n2)cc(OC)c1OC` and `COc1cc(C(=O)c2cccc(-c3ccc(C)c(Cl)c3)n2)cc(OC)c1OC` are the same in IC50: 20 nM for the first, 20 nM for the second.

Going from `COc1cc(C(=O)c2cccc(-c3ccc(C(N)=O)cc3)n2)cc(OC)c1OC` to `CCc1ccc(-c2cccc(C(=O)c3cc(OC)c(OC)c(OC)c3)n2)cc1`, the IC50 falls from 39.2 nM to 21 nM (1.9-fold). The second is the more potent here.

Compared with `COc1cc(C(=O)/C=C/c2cccc(-c3ccc(C)c(O)c3)n2)cc(OC)c1OC`, `COc1cc(C(=O)c2cc(F)cc(-c3ccc(C)c(O)c3)c2)cc(OC)c1OC` is lower in IC50: > 1000 nM for the first, 220 nM for the second. The second is the more potent here.

In the case of `COc1cc(C(=O)c2cccc(-c3ccc4[nH]ccc4c3)n2)cc(OC)c1OC`, the IC50 is reported as 17.7 nM.

tested on: MDA-MB-453; test: Antiproliferative activity against human MDA-MB-453 cells measured after 72 hrs by MTS assay; type: functional, cell-based; settings: MDA-MB-453, 72 h

Going from `COc1cc(C(=O)c2cccc(-c3ccccc3C)n2)cc(OC)c1OC` to `COc1cc(C(=O)c2cccc(-c3c[nH]c4ccccc34)n2)cc(OC)c1OC`, the IC50 falls from 58.3 nM to 8.5 nM (6.9-fold).

Compared with `COc1cc(C(=O)c2cnc(-c3c[nH]c4ccccc34)[nH]2)cc(OC)c1OC` [SABIZABULIN], `COc1cc(C(=O)c2ccccn2)cc(OC)c1OC` is higher in IC50: 13.6 nM for the first, > 1000 nM for the second. The first is the more potent here.

`COc1cc(C(=O)c2cccc(-c3ccc(C)c(C)c3)n2)cc(OC)c1OC` and `COc1cc(C(=O)c2cccc(-c3ccc(C)c(Cl)c3)n2)cc(OC)c1OC` are within 1.5-fold of each other in IC50: 15.8 nM for the first, 13.5 nM for the second.

Going from `COc1cc(C(=O)c2cccc(-c3ccc(C(N)=O)cc3)n2)cc(OC)c1OC` to `CCc1ccc(-c2cccc(C(=O)c3cc(OC)c(OC)c(OC)c3)n2)cc1`, the IC50 falls from 76.3 nM to 16.5 nM (4.6-fold).

Going from `COc1cc(C(=O)/C=C/c2cccc(-c3ccc(C)c(O)c3)n2)cc(OC)c1OC` to `COc1cc(C(=O)c2cc(F)cc(-c3ccc(C)c(O)c3)c2)cc(OC)c1OC`, the IC50 falls from > 1000 nM to 47.2 nM. The second is the more potent here.

`COc1cc(C(=O)c2cccc(-c3ccc4[nH]ccc4c3)n2)cc(OC)c1OC` was tested, and the IC50 was 14.9 nM.

tested on: SK-BR-3; test: Antiproliferative activity against human SK-BR-3 cells measured after 72 hrs by MTS assay; type: functional, cell-based; settings: SK-BR-3, 72 h

Compared with `COc1cc(C(=O)c2cccc(-c3ccccc3C)n2)cc(OC)c1OC`, `COc1cc(C(=O)c2cccc(-c3c[nH]c4ccccc34)n2)cc(OC)c1OC` is 3.5-fold lower in IC50: 68 nM for the first, 19.7 nM for the second.

Compared with `COc1cc(C(=O)c2cnc(-c3c[nH]c4ccccc34)[nH]2)cc(OC)c1OC` [SABIZABULIN], `COc1cc(C(=O)c2ccccn2)cc(OC)c1OC` is higher in IC50: 13.3 nM for the first, > 1000 nM for the second.

First: COc1cc(C(=O)c2cccc(-c3ccc(C)c(C)c3)n2)cc(OC)c1OC
Second: COc1cc(C(=O)c2cccc(-c3ccc(C)c(Cl)c3)n2)cc(OC)c1OC
The IC50 of the first is 1.5-fold lower: 8.8 nM for the first, 13.4 nM for the second. The first is the more potent here.

First: COc1cc(C(=O)c2cccc(-c3ccc(C(N)=O)cc3)n2)cc(OC)c1OC
Second: CCc1ccc(-c2cccc(C(=O)c3cc(OC)c(OC)c(OC)c3)n2)cc1
The IC50 of the first is 3-fold higher: 66.5 nM for the first, 22.4 nM for the second.

Compared with `COc1cc(C(=O)/C=C/c2cccc(-c3ccc(C)c(O)c3)n2)cc(OC)c1OC`, `COc1cc(C(=O)c2cc(F)cc(-c3ccc(C)c(O)c3)c2)cc(OC)c1OC` is lower in IC50: > 1000 nM for the first, 86.4 nM for the second. The second is the more potent here.

With `COc1cc(C(=O)c2cccc(-c3ccc4[nH]ccc4c3)n2)cc(OC)c1OC` the IC50 was 14.9 nM.

tested on: A-375; test: Antiproliferative activity against human A375 cells measured after 72 hrs by MTS assay; type: functional, cell-based; settings: A-375, 72 h

First: COc1cc(C(=O)c2cccc(-c3ccccc3C)n2)cc(OC)c1OC
Second: COc1cc(C(=O)c2cccc(-c3c[nH]c4ccccc34)n2)cc(OC)c1OC
The IC50 of the first is 2.7-fold higher: 52.5 nM for the first, 19.2 nM for the second.

Compared with `COc1cc(C(=O)c2cnc(-c3c[nH]c4ccccc34)[nH]2)cc(OC)c1OC` [SABIZABULIN], `COc1cc(C(=O)c2ccccn2)cc(OC)c1OC` is higher in IC50: 10.4 nM for the first, > 1000 nM for the second. The first is the more potent here.

Compared with `COc1cc(C(=O)c2cccc(-c3ccc(C)c(C)c3)n2)cc(OC)c1OC`, `COc1cc(C(=O)c2cccc(-c3ccc(C)c(Cl)c3)n2)cc(OC)c1OC` is 2.7-fold higher in IC50: 9 nM for the first, 24.2 nM for the second. The first is the more potent here.

Going from `COc1cc(C(=O)c2cccc(-c3ccc(C(N)=O)cc3)n2)cc(OC)c1OC` to `CCc1ccc(-c2cccc(C(=O)c3cc(OC)c(OC)c(OC)c3)n2)cc1`, the IC50 falls from 87.4 nM to 19.5 nM (4.5-fold). The second is the more potent here.

Going from `COc1cc(C(=O)/C=C/c2cccc(-c3ccc(C)c(O)c3)n2)cc(OC)c1OC` to `COc1cc(C(=O)c2cc(F)cc(-c3ccc(C)c(O)c3)c2)cc(OC)c1OC`, the IC50 falls from > 1000 nM to 67 nM. The second is the more potent here.

Molecule `COc1cc(C(=O)c2cccc(-c3ccc4[nH]ccc4c3)n2)cc(OC)c1OC` has an IC50 of 7 nM.

tested on: M14; test: Antiproliferative activity against human M14 cells measured after 72 hrs by MTS assay; type: functional, cell-based; settings: M14, 72 h

First: COc1cc(C(=O)c2cccc(-c3ccccc3C)n2)cc(OC)c1OC
Second: COc1cc(C(=O)c2cccc(-c3c[nH]c4ccccc34)n2)cc(OC)c1OC
The IC50 of the first is 1.5-fold higher: 27.4 nM for the first, 17.8 nM for the second.

Going from `COc1cc(C(=O)c2cnc(-c3c[nH]c4ccccc34)[nH]2)cc(OC)c1OC` [SABIZABULIN] to `COc1cc(C(=O)c2ccccn2)cc(OC)c1OC`, the IC50 rises from 8.9 nM to > 1000 nM. The first is the more potent here.

Going from `COc1cc(C(=O)c2cccc(-c3ccc(C)c(C)c3)n2)cc(OC)c1OC` to `COc1cc(C(=O)c2cccc(-c3ccc(C)c(Cl)c3)n2)cc(OC)c1OC`, the IC50 rises from 8.1 nM to 16.6 nM (2-fold).

First: COc1cc(C(=O)c2cccc(-c3ccc(C(N)=O)cc3)n2)cc(OC)c1OC
Second: CCc1ccc(-c2cccc(C(=O)c3cc(OC)c(OC)c(OC)c3)n2)cc1
The IC50 of the first is 2.7-fold higher: 47.9 nM for the first, 17.5 nM for the second.

First: COc1cc(C(=O)/C=C/c2cccc(-c3ccc(C)c(O)c3)n2)cc(OC)c1OC
Second: COc1cc(C(=O)c2cc(F)cc(-c3ccc(C)c(O)c3)c2)cc(OC)c1OC
The IC50 of the first is higher: > 1000 nM for the first, 30 nM for the second.

For `COc1cc(C(=O)c2cccc(-c3ccc4[nH]ccc4c3)n2)cc(OC)c1OC`, the IC50 was 6.7 nM.

tested on: RPMI-7951; test: Antiproliferative activity against human RPMI7951 cells measured after 72 hrs by MTS assay; type: functional, cell-based; settings: RPMI-7951, 72 h

Going from `COc1cc(C(=O)c2cccc(-c3ccccc3C)n2)cc(OC)c1OC` to `COc1cc(C(=O)c2cccc(-c3c[nH]c4ccccc34)n2)cc(OC)c1OC`, the IC50 falls from 54.2 nM to 19.5 nM (2.8-fold). The second is the more potent here.

First: COc1cc(C(=O)c2cnc(-c3c[nH]c4ccccc34)[nH]2)cc(OC)c1OC [SABIZABULIN]
Second: COc1cc(C(=O)c2ccccn2)cc(OC)c1OC
The IC50 of the first is lower: 8.8 nM for the first, > 1000 nM for the second. The first is the more potent here.

First: COc1cc(C(=O)c2cccc(-c3ccc(C)c(C)c3)n2)cc(OC)c1OC
Second: COc1cc(C(=O)c2cccc(-c3ccc(C)c(Cl)c3)n2)cc(OC)c1OC
The IC50 of the first is 2.7-fold lower: 8.4 nM for the first, 22.6 nM for the second. The first is the more potent here.

Going from `COc1cc(C(=O)c2cccc(-c3ccc(C(N)=O)cc3)n2)cc(OC)c1OC` to `CCc1ccc(-c2cccc(C(=O)c3cc(OC)c(OC)c(OC)c3)n2)cc1`, the IC50 falls from 36.3 nM to 18.3 nM (2-fold).

Compared with `COc1cc(C(=O)/C=C/c2cccc(-c3ccc(C)c(O)c3)n2)cc(OC)c1OC`, `COc1cc(C(=O)c2cc(F)cc(-c3ccc(C)c(O)c3)c2)cc(OC)c1OC` is lower in IC50: > 1000 nM for the first, 25.2 nM for the second. The second is the more potent here.

`COc1cc(C(=O)c2cccc(-c3ccc4[nH]ccc4c3)n2)cc(OC)c1OC` was tested, and the IC50 was 7.4 nM.
